Source: ChEMBL document CHEMBL5325456, “5-(4-Hydroxyphenyl)-3H-1,2-dithiole-3-thione derivatives of brefeldin A: Design, synthesis and cytotoxicity in MDA-MB-231 human breast cancer cells” (Bioorg Med Chem, 2023)
Calls of active or inactive are those of the source. The rule behind the calls is not given here.

Legend:
MDA-MB-231 [1] = experiment: Induction of apoptosis in human MDA-MB-231 cells assessed as early apoptotic cells at 0.165 uM incubated for 48 hrs by Annexin-V/FITC-PI staining based flow cytometry analysis (reference value: 2.93 %); assay type: functional
MDA-MB-231 [2] = experiment: Inhibition of cell adhesion in human MDA-MB-231 cells assessed as reduction in cell adhesion by measuring fluorescence intensity at 82.5 to 330 nM incubated for 48 hrs by flow cytometry analysis; assay type: functional, cell-based; conditions: dose 82.5-330 nM
A549 = experiment: Antiproliferative activity against human A549 cells assessed as reduction in cell viability incubated for 48 hrs by CCk-8 assay; assay type: functional, cell-based; conditions: A549, 48 h
MDA-MB-231 [3] = experiment: Induction of apoptosis in human MDA-MB-231 cells assessed as viable cells at 82.5 nM incubated for 48 hrs by Annexin-V/FITC-PI staining based flow cytometry analysis (reference value: 93.74 %); assay type: functional; conditions: read-out: Activity
MDA-MB-231 [4] = experiment: Induction of DNA damage in human MDA-MB-231 cells assessed as tail DNA at 82.5 nM incubated for 48 hrs by Comet assay (reference value: 0.007 %); assay type: functional
MDA-MB-231 [5] = experiment: Induction of apoptosis in human MDA-MB-231 cells assessed as early apoptotic cells at 82.5 nM incubated for 48 hrs by Annexin-V/FITC-PI staining based flow cytometry analysis (reference value: 2.93 %); assay type: functional
MDA-MB-231 [6] = experiment: Inhibition of cell migration in human MDA-MB-231 cells assessed as wound healing rate at 82.5 nM measured immediately by scratch wound healing assay (Rvb= 871.53 +/- 3.02 %); assay type: functional; set-up: scale not given: the % may be the effect or the level left
MDA-MB-231 [7] = experiment: Antiproliferative activity against human MDA-MB-231 cells assessed as reduction in cell viability incubated for 48 hrs by CCk-8 assay; assay type: functional, cell-based; conditions: MDA-MB-231, 48 h
Cell membrane [8] = experiment: Induction of mitochondrial membrane potential loss in human MDA-MB-231 cells assessed as proportion of MMP decreased cells at 0.33 uM and measured for 48 hrs by JC-1 staining based flow cytometry assay (reference value: 4.40%); assay type: subcellular; set-up: scale not given: the % may be the effect or the level left
Cell membrane [9] = experiment: Induction of mitochondrial membrane potential loss in human MDA-MB-231 cells assessed as proportion of MMP decreased cells at 0.165 uM and measured for 48 hrs by JC-1 staining based flow cytometry assay (reference value: 4.40%); assay type: subcellular; set-up: scale not given: the % may be the effect or the level left
MDA-MB-231 [10] = experiment: Induction of apoptosis in human MDA-MB-231 cells assessed as viable cells at 0.165 uM incubated for 48 hrs by Annexin-V/FITC-PI staining based flow cytometry analysis (reference value: 93.74 %); assay type: functional; conditions: read-out: Activity
MDA-MB-231 [11] = experiment: Induction of apoptosis in human MDA-MB-231 cells assessed as necrotic cells at 0.33 uM incubated for 48 hrs by Annexin-V/FITC-PI staining based flow cytometry analysis (reference value: 0.99 %); assay type: functional
MDA-MB-231 [12] = experiment: Induction of apoptosis in human MDA-MB-231 cells assessed as late apoptotic cells at 82.5 nM incubated for 48 hrs by Annexin-V/FITC-PI staining based flow cytometry analysis (reference value: 2.34 %); assay type: functional
HepG2 = experiment: Antiproliferative activity against human HepG2 cells assessed as reduction in cell viability incubated for 48 hrs by CCk-8 assay; assay type: functional, cell-based; conditions: HepG2, 48 h
MDA-MB-231 [13] = experiment: Inhibition of cell migration in human MDA-MB-231 cells assessed as wound healing rate at 0.165 uM measured immediately by scratch wound healing assay (Rvb= 871.53 +/- 3.02 %); assay type: functional; set-up: scale not given: the % may be the effect or the level left
MDA-MB-231 [14] = experiment: Inhibition of cell migration in human MDA-MB-231 cells assessed as wound healing rate at 0.33 uM measured for 24 hrs by scratch wound healing assay (Rvb= 230.22 +/- 32.21 %); assay type: functional; set-up: scale not given: the % may be the effect or the level left
MDA-MB-231 [15] = experiment: Induction of cell cycle arrest in human MDA-MB-231 cells assessed as accumulation of cells at G2 phase at 82.5 nM incubated for 48 hrs by flow cytometry analysis (reference value: 16.05 %); assay type: functional
MDA-MB-231 [16] = experiment: Induction of DNA damage in human MDA-MB-231 cells assessed as tail DNA at 0.165 uM incubated for 48 hrs by Comet assay (reference value: 0.007 %); assay type: functional
MDA-MB-231 [17] = experiment: Induction of apoptosis in human MDA-MB-231 cells assessed as early apoptotic cells at 0.33 uM incubated for 48 hrs by Annexin-V/FITC-PI staining based flow cytometry analysis (reference value: 2.93 %); assay type: functional
DU-145 = experiment: Antiproliferative activity against human DU-145 cells assessed as reduction in cell viability incubated for 48 hrs by CCk-8 assay; assay type: functional, cell-based; conditions: DU-145, 48 h
MDA-MB-231 [18] = experiment: Induction of apoptosis in human MDA-MB-231 cells assessed as late apoptotic cells at 0.165 uM incubated for 48 hrs by Annexin-V/FITC-PI staining based flow cytometry analysis (reference value: 2.34 %); assay type: functional
HeLa = experiment: Antiproliferative activity against human HeLa cells assessed as reduction in cell viability incubated for 48 hrs by CCk-8 assay; assay type: functional, cell-based
MDA-MB-231 [19] = experiment: Inhibition of cell invasion in human MDA-MB-231 cells incubated for 24 hrs by crystal violet staining based transwell assay; assay type: functional; conditions: dose 82.5-330 nM
MDA-MB-231 [20] = experiment: Induction of apoptosis in human MDA-MB-231 cells assessed as late apoptotic cells at 0.33 uM incubated for 48 hrs by Annexin-V/FITC-PI staining based flow cytometry analysis (reference value: 2.34 %); assay type: functional
MDA-MB-231 [21] = experiment: Induction of cell cycle arrest in human MDA-MB-231 cells assessed as accumulation of cells at S phase at 0.33 uM incubated for 48 hrs by flow cytometry analysis (reference value: 36.51%); assay type: functional
A-375 = experiment: Antiproliferative activity against human A-375 cells assessed as reduction in cell viability incubated for 48 hrs by CCk-8 assay; assay type: functional, cell-based; conditions: A-375, 48 h
MDA-MB-231 [22] = experiment: Inhibition of cell migration in human MDA-MB-231 cells assessed as wound healing rate at 0.165 uM measured for 24 hrs by scratch wound healing assay (Rvb= 230.22 +/- 32.21 %); assay type: functional; set-up: scale not given: the % may be the effect or the level left
MDA-MB-231 [23] = experiment: Induction of cell cycle arrest in human MDA-MB-231 cells assessed as accumulation of cells at G2 phase at 0.165 uM incubated for 48 hrs by flow cytometry analysis (reference value: 16.05 %); assay type: functional
MDA-MB-231 [24] = experiment: Induction of DNA damage in human MDA-MB-231 cells assessed as tail DNA at 0.33 uM incubated for 48 hrs by Comet assay (reference value: 0.007 %); assay type: functional
MDA-MB-231 [25] = experiment: Induction of cell cycle arrest in human MDA-MB-231 cells assessed as accumulation of cells at S phase at 82.5 nM incubated for 48 hrs by flow cytometry analysis (reference value: 36.51%); assay type: functional
MDA-MB-231 [26] = experiment: Induction of apoptosis in human MDA-MB-231 cells assessed as viable cells at 0.33 uM incubated for 48 hrs by Annexin-V/FITC-PI staining based flow cytometry analysis (reference value: 93.74 %); assay type: functional; conditions: read-out: Activity
Cell membrane [27] = experiment: Induction of mitochondrial membrane potential loss in human MDA-MB-231 cells assessed as proportion of MMP decreased cells at 82.5 nM and measured for 48 hrs by JC-1 staining based flow cytometry assay (reference value: 4.40%); assay type: subcellular; set-up: scale not given: the % may be the effect or the level left

IC50 (A549): 580 nM | IC50 (MDA-MB-231 [7]): 330 nM | Activity (Cell membrane [8]): 49.8% | Activity (Cell membrane [9]): 31.7% | IC50 (HepG2): 750 nM | IC50 (DU-145): 690 nM | IC50 (HeLa): 850 nM | IC50 (A-375): 1820 nM | Activity (Cell membrane [27]): 16.3%
SMILES: C[C@H]1CCC/C=C/[C@@H]2C[C@H](O)C[C@H]2[C@H](OC(=O)CCCC(=O)OCCOc2ccc(-c3cc(=S)ss3)cc2)/C=C/C(=O)O1
Activity (MDA-MB-231 [1]): 10.14% | inhibition (MDA-MB-231 [2]): Active | viability at 0.0825 µM (MDA-MB-231 [3]): 82% | Activity (MDA-MB-231 [4]): 20.49% | Activity (MDA-MB-231 [5]): 10.01% | Activity (MDA-MB-231 [6]): 832.33% | viability at 0.165 µM (MDA-MB-231 [10]): 71.7% | Activity (MDA-MB-231 [11]): 4.11% | Activity (MDA-MB-231 [12]): 5.82% | Activity (MDA-MB-231 [13]): 830.55% | Activity (MDA-MB-231 [14]): 610.67% | Activity (MDA-MB-231 [15]): 13.5% | Activity (MDA-MB-231 [16]): 39.11% | Activity (MDA-MB-231 [17]): 21.05% | Activity (MDA-MB-231 [18]): 16.31% | inhibition (MDA-MB-231 [19]): Dose-Dependent Effect | Activity (MDA-MB-231 [20]): 31.61% | Activity (MDA-MB-231 [21]): 22.99% | Activity (MDA-MB-231 [22]): 465.92% | Activity (MDA-MB-231 [23]): 9.52% | Activity (MDA-MB-231 [24]): 49.49% | Activity (MDA-MB-231 [25]): 30.23% | viability at 0.33 µM (MDA-MB-231 [26]): 43.2%
